These results are taken from patent publication US20240100112A1, “TRADITIONAL CHINESE MEDICINE OINTMENT FOR PREVENTING AND TREATING MASTITIS IN DAIRY COWS, AND PREPARATION METHOD THEREOF” (Hunan University of Science and Engineering, priority 2022, published 2024).

This assay relates to mastitis in dairy cows. Nature of the assay: Treatment of dairy cows with mastitis; cure judged by sodium hydroxide curdled milk test. The conditions noted are these: dairy cows with mastitis (SMT detected); ointment 2 g externally twice a day for 5 days, or penicillin 100,000 IU breast perfusion; tested one day after stopping. The format is in vivo. The text has this:
Fifty dairy cows with mastitis detected by Shanghai Mastitis Test (SMT) are selected from a dairy farm in Hunan Province, of which 20 cows are externally coated with the traditional Chinese medicine ointment for preventing and treating mastitis in dairy cows prepared in embodiment 1 and 20 cows are externally applied with the traditional Chinese medicine ointment for preventing and treating mastitis in dairy cows prepared in comparative example 1, with the dosage of 2 g each time, twice a day for 5 days. The remaining 10 cows are perfused with penicillin 100,000 IU after all the milk is discharged from their breasts, as a control group.
Cure standard: one day after stopping the ointments, if curdled milk is negative by the sodium hydroxide test, the cows are judged to be cured.

For the compound `CC1(C)S[C@@H]2[C@H](NC(=O)Cc3ccccc3)C(=O)N2[C@H]1C(=O)O` [Control group, penicillin], the “Cows (head) with curdled milk being negative by sodium hydroxide test” value turned out to be 8 head and the “Cure rate (%)” value is listed as 80%.
